Experiment [1] has as its target human RORγt ligand binding domain (RORγt LBD) (Homo sapiens (Human), UniProt P51449). In words: RORγt ThermoFluor assay (thermal shift, binding affinity Kd).
Experiment [2] addresses human RORγt LBD fused to the DNA binding domain of the GAL4 protein (Homo sapiens (Human), UniProt P51449). In words: RORγt (LBD) reporter assay in HEK293T cells. In kind it is cell-based. Also noted: RORγt (LBD) Reporter Assay, % inhibition: dose or concentration left out as unconfirmed. To be noted: for inhibition at 6 µM: HEK-293T, read-out: RORγt (LBD) Reporter Assay, % inhibition @ 6 μM, @ 6 μM.
Text: A reporter assay was used to test functional activity of RORγt modulatory compounds on transcriptional activation driven by the RORγt LBD. Cells used in the assay were co-transfected with two constructs. The first construct, pBIND-RORγt LBD, contained the wild type human RORγt LBD fused to the DNA binding domain of the GAL4 protein. The second construct, pGL4.31 (Promega Cat no. C935A), contained multiple GAL4 responsive DNA elements upstream of firefly luciferase.
The pBIND vector contains the GAL4 DNA Binding Domain (GAL4 DBD) and the renilla luciferase gene under control of the SV40 promoter. Renilla luciferase expression serves as a control for transfection efficiency and cell viability.
The reporter assay was performed by transiently transfecting HEK293T cells with 5 μg of pBIND-RORγt LBD or pBIND-RORγt LBD-AF2 and 5 μg pGL4.31 (Promega Cat no. C935A) using Fugene 6 (Invitrogen Cat no. E2691) at a 1:6 ratio of DNA:Fugene 6 in a T-75 flask in which cells were at least 80% confluent. Twenty four hours after bulk transfection, cells were plated into 96-well plates at 50,000 cells/well in phenol-red free DMEM containing 5% Lipid Reduced FCS and Pen/Strep. Six hours after plating, cells were treated with compounds for 24 hours. Media was removed and cells were lysed with 50 μL 1× Glo Lysis Buffer (Promega). Dual Glo Luciferase Reagent (50 μL/well) was then added and firefly luciferase luminescence was read on an Envision after a ten minute incubation. Finally, Stop and Glo reagent (50 L/well) was added and renilla luciferase luminescence was read on an Envision after a ten minute incubation. To calculate the effect of compounds on RORγt activity, the ratio of firefly to renilla luciferase was determined and plotted against compound concentration. Agonist compounds increase RORγt-driven luciferase expression, and antagonist or inverse agonist compounds decrease luciferase expression.

Setting [3] is: read-out: ThermoFluor Assay, Kd.
[4] abbreviates: read-out: ThermoFluor ® Assay, Kd.

From patent US10201546B2, “Quinolinyl modulators of RORγt” (Janssen Pharmaceutica NV, priority 2013, dated 2019) come the findings set out here.

Read-outs that look alike come from different tables or passages of the source.

Sequence of human RORγt ligand binding domain (RORγt LBD) (P51449 other isoform, or with tags, fused parts or gaps): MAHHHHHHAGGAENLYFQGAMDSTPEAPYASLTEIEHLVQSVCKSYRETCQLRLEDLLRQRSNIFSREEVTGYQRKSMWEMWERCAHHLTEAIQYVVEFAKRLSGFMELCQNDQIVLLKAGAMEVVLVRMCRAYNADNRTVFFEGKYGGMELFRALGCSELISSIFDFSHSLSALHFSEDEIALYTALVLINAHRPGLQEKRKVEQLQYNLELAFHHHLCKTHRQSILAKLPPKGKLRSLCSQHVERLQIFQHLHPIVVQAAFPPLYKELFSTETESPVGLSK
Sequence of human RORγt LBD fused to the DNA binding domain of the GAL4 protein (P51449 258-518): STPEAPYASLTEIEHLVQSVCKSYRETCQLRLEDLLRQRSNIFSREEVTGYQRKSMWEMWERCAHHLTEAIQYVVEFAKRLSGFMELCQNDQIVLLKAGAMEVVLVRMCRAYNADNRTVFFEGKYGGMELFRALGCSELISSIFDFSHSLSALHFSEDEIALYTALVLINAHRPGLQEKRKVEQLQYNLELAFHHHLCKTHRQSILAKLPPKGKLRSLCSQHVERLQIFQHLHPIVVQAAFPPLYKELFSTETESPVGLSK

Usually Kd stands for the free concentration of one partner at which half of the binding sites on the other are occupied at equilibrium, for simple one-to-one binding. Consider `COc1nc2ccc(C(O)(c3ccc(C)nc3C)c3cnnn3C)cc2c(Cl)c1CC1CCS(=O)(=O)CC1` (single isomer, unassigned) [Example 2c, 4-((4-Chloro-6-((2,6-dimethylpyridin-3-yl)(hydroxy)(1-methyl-1H-1,2,3-triazol-5-yl)methyl)-2-methoxyquinolin-3-yl)methyl)tetrahydro-2H-thiopyran 1,1-dioxide], for which the Kd in experiment [1] (ThermoFluor Assay, Kd) was found to be 110 nM.

Usually IC50 stands for the concentration that inhibits the measured activity by half. For orientation: inhibition means the relative decrease from the control value, in per cent. As for `COc1nc2ccc(C(O)(c3cncn3C)C3CCN(S(C)(=O)=O)CC3)cc2c(Cl)c1CC1CCOCC1` (single isomer, unassigned) [Example 6b, (4-Chloro-2-methoxy-3-((tetrahydro-2H-pyran-4-yl)methyl)quinolin-6-yl)(1-methyl-1H-imidazol-5-yl)(1-(methylsulfonyl)piperidin-4-yl)methanol], in experiment [2], the IC50 was above 6000 nM and the inhibition at 6 µM came out at 17%. Besides, the Kd in experiment [1] (setting [3]) was 240 nM.

For `COc1nc2ccc(C(O)(c3cncn3C)C3CCN(S(C)(=O)=O)CC3)cc2c(Cl)c1CC1CCOCC1` (single isomer, unassigned) [Example 6c, (4-Chloro-2-methoxy-3-((tetrahydro-2H-pyran-4-yl)methyl)quinolin-6-yl)(1-methyl-1H-imidazol-5-yl)(1-(methylsulfonyl)piperidin-4-yl)methanol], in experiment [2], the IC50 was above 6000 nM and the “RORγt (LBD) Reporter Assay, % inhibition @ 6 μM” value (“RORγt … % inhibition @ 6 μM” for short) was 26%. In addition, in experiment [1] (setting [3]), the Kd is 130 nM.

Consider `COc1nc2ccc(C(O)(c3cnc(C)n3C)c3cnc(C)n3C)cc2c(Cl)c1OC1CCCN(C)C1` (single isomer, unassigned) [Example 51b, (4-Chloro-2-methoxy-3-{[1-methylpiperidin-3-yl]oxy}quinolin-6-yl)[bis(1,2-dimethyl-1H-imidazol-5-yl)]methanol], for which the Kd in experiment [1] (setting [3]) was determined as 3000 nM.

As for `COc1nc2ccc(C(O)(c3cnc(C)n3C)c3cnc(C)n3C)cc2c(Cl)c1OC1CCCN(C)C1` (single isomer, unassigned) [Example 51c, (4-Chloro-2-methoxy-3-{[1-methylpiperidin-3-yl]oxy}quinolin-6-yl)[bis(1,2-dimethyl-1H-imidazol-5-yl)]methanol], in experiment [2], the IC50 was above 6000 nM and the inhibition at 6 µM is -4%. For the same compound, the Kd in experiment [1] (setting [3]) stood at 5000 nM.

Turning to `COc1nc2ccc(C(O)(c3ccc(C)nc3C)c3cnnn3C)cc2c(Cl)c1OCCN1CCCC1` (single isomer, unassigned) [Example 67b, [4-Chloro-2-methoxy-3-(2-pyrrolidin-1-ylethoxy)quinolin-6-yl](2,6-dimethylpyridin-3-yl)(1-methyl-1H-1,2,3-triazol-5-yl)methanol], in experiment [2], the IC50 is above 6000 nM and the inhibition at 6 µM is -37%. The Kd in experiment [1] (setting [3]) was 1000 nM.

Regarding `COc1nc2ccc(C(O)(c3ccc(C)nc3C)c3cnnn3C)cc2c(Cl)c1OCCS(C)(=O)=O` (single isomer, unassigned) [Example 70b, {4-Chloro-2-methoxy-3-[2-(methylsulfonyl)ethoxy]quinolin-6-yl}(2,6-dimethylpyridin-3-yl)(1-methyl-1H-1,2,3-triazol-5-yl)methanol], in experiment [2], the IC50 is above 6000 nM and the inhibition at 6 µM came out at 28%. For the same compound, in experiment [1] (setting [3]), the Kd amounted to 2200 nM.

Take `COc1nc2ccc(C(O)(c3ccc(C)nc3C)c3cnnn3C)cc2c(Cl)c1OCCN(C)C` (single isomer, unassigned) [Example 74b, {4-Chloro-3-[2-(dimethylamino)ethoxy]-2-methoxyquinolin-6-yl}(2,6-dimethylpyridin-3-yl)(1-methyl-1H-1,2,3-triazol-5-yl)methanol]: in experiment [2], the IC50 is above 6000 nM and the inhibition at 6 µM was -9%. Further, the Kd in experiment [1] (setting [3]) stood at 4900 nM.

With `COc1nc2ccc(C(O)(c3ccc(C(F)(F)F)nc3)c3cncn3C)cc2c(Cl)c1OCc1cccnc1` (single isomer, unassigned) [Example 76b, [4-Chloro-2-methoxy-3-(pyridin-3-ylmethoxy)quinolin-6-yl](1-methyl-1H-imidazol-5-yl)[6-(trifluoromethyl)pyridin-3-yl]methanol], in experiment [2], the IC50 is above 6000 nM and the “RORγt … % inhibition @ 6 μM” value is −17%. The Kd in experiment [1] (setting [3]) stood at 1200 nM.

`COc1nc2ccc(C(O)(c3ccc(C(F)(F)F)nc3)c3cncn3C)cc2c(Cl)c1OCc1cccnc1` (single isomer, unassigned) [Example 76c, [4-Chloro-2-methoxy-3-(pyridin-3-ylmethoxy)quinolin-6-yl](1-methyl-1H-imidazol-5-yl)[6-(trifluoromethyl)pyridin-3-yl]methanol]: in experiment [2], the IC50 was above 6000 nM and the “RORγt … % inhibition @ 6 μM” value is recorded as −35%. Also, the Kd in experiment [1] (setting [3]) was 110 nM.

As for `COc1nc2ccc(C(O)(c3ccc(C(F)(F)F)nc3)c3cncn3C)cc2c(C#N)c1CN1CCC(C(F)(F)F)CC1` (single isomer, unassigned) [Example 191b, 6-(Hydroxy(1-methyl-1H-imidazol-5-yl)(6-(trifluoromethyl)pyridin-3-yl)methyl)-2-methoxy-3-((4-(trifluoromethyl)piperidin-1-yl)methyl)quinoline-4-carbonitrile], the Kd in experiment [1] (setting [4]) was 98 nM.

Turning to `COc1nc2ccc(C(O)(c3ccc(C(F)(F)F)nc3)c3cncn3C)cc2c(C#N)c1CN1CCC(C(F)(F)F)CC1` (single isomer, unassigned) [Example 191c, 6-(Hydroxy(1-methyl-1H-imidazol-5-yl)(6-(trifluoromethyl)pyridin-3-yl)methyl)-2-methoxy-3-((4-(trifluoromethyl)piperidin-1-yl)methyl)quinoline-4-carbonitrile], the dissociation constant Kd in experiment [1] (setting [4]) turned out to be 3.1 nM.

Take `Cc1ccc(C(O)(c2ccc3nc(Cl)c(CC(F)(F)F)c(N4CCC4)c3c2)c2cnnn2C)c(C)n1` (single isomer, unassigned) [Example 238b, [4-(Azetidin-1-yl)-2-chloro-3-(2,2,2-trifluoroethyl)-6-quinolyl]-(2,6-dimethyl-3-pyridyl)-(3-methyltriazol-4-yl)methanol]: in experiment [2], the IC50 is above 6000 nM and the “RORγt (LBD) Reporter Assay, % inhibition” value stood at 9%. The Kd in experiment [1] (setting [4]) came to 13000 nM.

`COc1nc2ccc(C(O)(c3ccccc3)C3CCN(C(C)=O)CC3)cc2c(Cl)c1CC1CCOCC1` (stereo not shown) [Example 4a, 1-(4-((4-Chloro-2-methoxy-3-((tetrahydro-2H-pyran-4-yl)methyl)quinolin-6-yl)(hydroxy)(phenyl)methyl)piperidin-1-yl)ethanone]: in experiment [2], the IC50 was above 6000 nM and the inhibition at 6 µM worked out at 24%. Also, the Kd in experiment [1] (setting [3]) was determined as 16 nM.

For the compound `COc1nc2ccc([C@](O)(c3ccccc3)C3CCN(C(C)=O)CC3)cc2c(Cl)c1CC1CCOCC1` [Example 4c], in experiment [2], the IC50 was above 6000 nM and the “RORγt … % inhibition @ 6 μM” value is recorded as −6%. Also, the Kd in experiment [1] (setting [3]) was 53 nM.

In the case of `COc1nc2ccc(C(O)(c3cnc(C)n3C)c3cnc(C)n3C)cc2c(Cl)c1OCC1CCCN1C` (stereo not shown) [Example 52, {4-Chloro-2-methoxy-3-[(1-methylpyrrolidin-2-yl)methoxy]quinolin-6-yl}[bis(1,2-dimethyl-1H-imidazol-5-yl)]methanol], in experiment [1] (setting [3]), the Kd stood at 2900 nM.

In the case of `COc1nc2ccc(C(O)(c3ccc(C)nc3C)c3cnnn3C)cc2c(Cl)c1C(=O)N1CCC(C(F)(F)F)CC1` (stereo not shown) [Example 83, (4-Chloro-2-methoxy-3-{[4-(trifluoromethyl)piperidin-1-yl]carbonyl}quinolin-6-yl)(2,6-dimethylpyridin-3-yl)(1-methyl-1H-1,2,3-triazol-5-yl)methanol], in experiment [1] (setting [3]), the Kd turned out to be 360 nM.

As to `COc1nc2ccc(C(O)(c3ccc(C)nc3C)c3cnnn3C)cc2c(Cl)c1C(=O)NCC1CC1` (stereo not shown) [Example 147, 4-Chloro-N-(cyclopropylmethyl)-6-[(2,6-dimethylpyridin-3-yl)(hydroxy)(1-methyl-1H-1,2,3-triazol-5-yl)methyl]-2-methoxyquinoline-3-carboxamide], in experiment [1] (setting [4]), the Kd turned out to be 930 nM.

As for `COc1nc2ccc(C(O)(c3ccc(C)nc3C)c3cnnn3C)cc2c(Cl)c1C(=O)N(C)C` (stereo not shown) [Example 148, 4-Chloro-6-[(2,6-dimethylpyridin-3-yl)(hydroxy)(1-methyl-1H-1,2,3-triazol-5-yl)methyl]-2-methoxy-N,N-dimethylquinoline-3-carboxamide], the Kd in experiment [1] (setting [4]) is 1700 nM.

In the case of `COc1nc2ccc(C(O)(c3ccc(C)nc3C)c3cnnn3C)cc2c(Cl)c1C(=O)N1CCCC1` (stereo not shown) [Example 151, [4-Chloro-2-methoxy-3-(pyrrolidin-1-ylcarbonyl)quinolin-6-yl](2,6-dimethylpyridin-3-yl)(1-methyl-1H-1,2,3-triazol-5-yl)methanol], the Kd in experiment [1] (setting [4]) was determined as 5100 nM.

Take `COc1nc2ccc(C(O)(c3ccc(C)nc3C)c3cnnn3C)cc2c(Cl)c1C(=O)NCC(F)(F)F` (stereo not shown) [Example 152, 4-Chloro-6-[(2,6-dimethylpyridin-3-yl)(hydroxy)(1-methyl-1H-1,2,3-triazol-5-yl)methyl]-2-methoxy-N-(2,2,2-trifluoroethyl)quinoline-3-carboxamide]: the Kd in experiment [1] (setting [4]) came to 600 nM.

As for `COc1nc2ccc(C(O)(c3ccc(C)nc3C)c3cnnn3C)cc2c(Cl)c1C(=O)N1CC(F)(F)C1` (stereo not shown) [Example 153, {4-Chloro-3-[(3,3-difluoroazetidin-1-yl)carbonyl]-2-methoxyquinolin-6-yl}(2,6-dimethylpyridin-3-yl)(1-methyl-1H-1,2,3-triazol-5-yl)methanol], the Kd in experiment [1] (setting [4]) is 3000 nM.

In the case of `COc1nc2ccc(C(O)(c3cnc(C)n3C)c3cnc(C)n3C)cc2c(Cl)c1CNC(=O)CC(F)(F)F` [Example 185, N-((6-(Bis(1,2-dimethyl-1H-imidazol-5-yl)(hydroxy)methyl)-4-chloro-2-methoxyquinolin-3-yl)methyl)-3,3,3-trifluoropropanamide], the Kd in experiment [1] (setting [4]) turned out to be 770 nM.

As to `COc1nc2ccc(C(O)(c3cnc(C)n3C)c3cnc(C)n3C)cc2c(Cl)c1CNC(=O)CCC(F)(F)F` [Example 186, N-((6-(Bis(1,2-dimethyl-1H-imidazol-5-yl)(hydroxy)methyl)-4-chloro-2-methoxyquinolin-3-yl)methyl)-4,4,4-trifluorobutanamide], the Kd in experiment [1] (setting [4]) is 590 nM.
